# Measurements as given in patent US9023817B2, “Use of albiflorin for anti-depression” (priority 2009, dated 2015).
# Where a name gives a salt, the structure may show the parent alone. Marks after values point to notes of the source that are not given here.
# Experiments:
# [1] = tested on: ICR mice; assay: Tail suspension test in mice, administration by gavage; type: in vivo; details: 1 h after administration, over 4 min; for Immobility Time (s): listed as paeoniflorin
# Procedure: In the second day, 1 h after the administration, the tail of mouse (2 cm away from the tip of the tail) was fixed to the connection line of 100 g tension transducer by adhesive plaster, and the mouse was hung upside down, with the head about 15 cm away from the experimental bench, two animals isolated from each other by a cardboard were simultaneously tested for each time. The transducer was connected to the Medlab bio-signals acquisition and processing system, after 2 min of adaption, the result over 4 min was recorded, and the immobility situation was converted into the time(s). The experimental data were expressed as X±SD, and the analysis of variance for the experimental results was carried out by SPSS 11.5 statistical software (purchased from SPSS Inc., USA).
# [2] = tested on: ICR mice; assay: Forced swimming test in mice; type: in vivo; details: 1 h after administration, last 4 min; for Immobility Time (s): listed as paeoniflorin
# Procedure: Each group was administered by gavage at a dose of 0.2 ml/10 g weight, for two days, deionized water was administered to vehicle group.
# In the second day, 1 h after the administration, the mice were placed separately into a water cylinder with 20 cm of height, 18 cm of diameter, 10 cm of depth, 23±2° C. of water temperature; observing each for 6 min, after 2 min of adaption, the immobility time over the last 4 min was recorded.
# The data was expressed as x±s, analyzed by SPSS 13.0 statistical software by means of One-Way ANOVA test, the homogeneity of variance was tested by LSD and SNK test.
# [3] = tested on: ICR mice; assay: Reserpine-induced hypothermia test in mice; type: in vivo; details: 3 mg/kg gavage 7 days, reserpine 2 mg/kg i.p., rectal temperature 4 hours after reserpine
# Procedure: 50 mice were randomly divided into five groups (n=10 for each group): high-dose group (14 mg*kg^−1), medium-dose group (7 mg*kg^−1), low-dose group (3.5 mg*kg^−1) of Albiflorin; control group of paroxetine (3 mg/kg); model group of physiological saline. The gavage was carried out for 7 days. Rectal temperatures of mice were measured at 1 hour after the administration on the 8th day, then reserpine was administered by intraperitoneal injection at a dose of 2 mg/kg, rectal temperatures of mice were measured again at 4 hours after the injection of reserpine. The depth into anus of thermometer and the time for each temperature measurement of mice was coincident. The experimental data was expressed as X±SD, and the analysis of variance for the experimental results was carried out by SPSS 11.5 statistical software (purchased from SPSS Inc., USA), the experimental results were shown in Table 4.
# [4] = tested on: rats with chronic stress induced depression model; assay: Body weights of rats with chronic stress induced depression (CUMS); type: in vivo, SD rats; details: 3 mg/kg/day gavage
# Procedure: (§1) The gavage was carried out along with the model establishment, once a day, for 21 days. […] Referring to the methods in the literature (Xu Jing, Li Xiaoqiu, Establishment and evaluation of the model of chronic stress induced depression, Chinese Journal of Behavioral Medical Science, 2003, 12(1): 14 16), the model was established (i.e., establishing animal model of anti-depression by means of CUMS): the foot electric shock (voltage: […] (5 minutes), drying at 45° C. (5 minutes), tail nipping (1 min), wet feeding (wet mat), reversed day and night (24 hours), fasting (24 hours), water deprivation (24 hours) were randomly scheduled within 21 days, one kind of stimulations was given for each day, except for the animals of vehicle group, the others were separately caged with free diet, at the room temperature of (24±1)° C., with the relative humidity of (60±10)%. All parameters to be tested were expressed as Mean±SD (X±s), and tested by means of analysis of variance (ANOVA) in SPSS 12.0 software (purchased from SPSS Inc., USA), p<0.05 means that there was a significant difference.
# [5] = tested on: rats with chronic stress induced depression model; assay: Consumption of 1% aqueous sucrose, chronic stress induced depression; type: in vivo, SD rats; details: 3 mg/kg/day gavage, 1% aqueous sucrose for 1 hour
# Procedure: The gavage was carried out along with the model establishment, once a day, for 21 days. […] Referring to the methods in the literature (Xu Jing, Li Xiaoqiu, Establishment and evaluation of the model of chronic stress induced depression, Chinese Journal of Behavioral Medical Science, 2003, 12(1): 14 16), the model was established (i.e., establishing animal model of anti-depression by means of CUMS): the foot electric shock (voltage: […] (5 minutes), drying at 45° C. […] All parameters to be tested were expressed as Mean±SD (X±s), and tested by means of analysis of variance (ANOVA) in SPSS 12.0 software (purchased from SPSS Inc., USA), p<0.05 means that there was a significant difference.
# [6] = tested on: rats with chronic stress induced depression model; assay: Open-field test, chronic stress induced depression; type: in vivo, SD rats; details: 3 mg/kg/day gavage for 21 days, 3 minutes, Hydrochloride
# Procedure: as §1, with “(60±10)%. The open-field device was of 40 cm in height, 80 cm in both length and width, without cap, the inner walls and the bottom of the device are black, and the bottom was divided into 25 squares with equal area. The numbers of squares that the animals pass through were designated as the score of horizontal movement, and the numbers of standing (with the forelegs above 1 cm away from the ground) were designated as the score of vertical movement. Each animal was measured for one time, 3 minutes for each measurement.” for “(60±10)%.”
# [7] = tested on: rats with chronic stress induced depression model; assay: Jump stair test, chronic stress induced depression; type: in vivo, SD rats; details: 3 mg/kg/day gavage for 21 days, 5 minutes, Hydrochloride; for Error times in testing period: after 24 hours
# Procedure: as §1, with “(60±10)%. […] A wooden platform (height: 5 cm, diameter: 8 cm) was placed into the box at the left back corner. Animals were placed into the response box to adapt to the environment for 3 minutes, and then the box was immediately electrified with […] alternating current, the normal response of the animal which suffered from electric shock was to jump onto the platform in order to avoid such harmful stimulation. Most animals were likely to jump down to the copper railings again or for several times, and then quickly jump back to the platform after suffering from the electric shock, being trained like this for 5 minutes, the times that the rats suffered from the electric shock were designated as error times. The test was carried out again after 24 hours, rats were placed on the platform and the box was charged, timing and recording the error times for 5 minutes.” for “(60±10)%.”
# [8] = tested on: ICR mice; assay: Tail suspension test in mice, extract of Radix paeoniae alba; type: in vivo; details: 3.5 mg/kg/d gavage for 2 days; 1 hour after last administration; 4 min; Hydrochloride
# Procedure: Each group was administered at a dosage of 0.2 ml/10 g body weight. The vehicle group was administered with deionized water by gavage once a day, for 2 days. The test was carried out at 1 hour after the last administration. The tail of mouse (2 cm away from the tip of the tail) was fixed to the connection line of 100 g tension transducer with adhesive plaster, and the mouse was hung upside down, with the head about 15 cm away from the experimental bench, the transducer was connected to the Medlab bio-signals acquisition and processing system, after 2 min of adaption, the immobility time(s) for 4 min was recorded.
# The experimental data was expressed as X±s, analyzed by SPSS 13.0 statistical software by means of One-Way ANOVA test.
# [9] = 3.5 mg/kg/d by gavage for two days
# [10] = 7 mg/kg/d by gavage for two days
# [11] = 14 mg/kg/d by gavage for two days
# [12] = Day 14, listed as Positice control, Hydrochloride
# [13] = Day 14, listed as Prozac, Hydrochloride
# [14] = Day 21, listed as Positice control, Hydrochloride
# [15] = Day 21, listed as Prozac, Hydrochloride
smiles,measurement,setting,value
C[C@@]12C[C@@]3(O)O[C@@H](O1)[C@]1(COC(=O)c4ccccc4)[C@H]3C[C@@]12O[C@@H]1O[C@H](CO)[C@@H](O)[C@H](O)[C@H]1O [Paeoniflorin],Immobility Time,[1]; [9],85.62 ± 31.225 s
same,Immobility Time (s),[1]; [9],not significantly different from the model group
same,Immobility Time,[1]; [10],76.83 ± 36.452 s
same,Immobility Time (s),[1]; [10],not significantly different from the model group
same,Immobility Time,[1]; [11],81.32 ± 32.756 s
same,Immobility Time (s),[1]; [11],not significantly different from the model group
same,Immobility Time,[2]; [9],58.60 ± 32.320 s
same,Immobility Time (s),[2]; [9],not significantly different from the model group
same,Immobility Time,[2]; [10],43.94 ± 38.341 s
same,Immobility Time (s),[2]; [10],not significantly different from the model group
same,Immobility Time,[2]; [11],50.39 ± 31.257 s
same,Immobility Time (s),[2]; [11],not significantly different from the model group
Fc1ccc([C@@H]2CCNC[C@H]2COc2ccc3c(c2)OCO3)cc1 [Paroxetine],Hypothermia value (° C.),[3],2.38 ± 0.69** ° C.
same,Hypothermia value (° C.),[3]; listed as paroxetine,significantly recede
"CNCCC(Oc1ccc(C(F)(F)F)cc1)c1ccccc1 (stereo not drawn) [Positive control, Fluoxetine Hydrochloride]",Immobility Time,[1]; [9],66.21 ± 33.253 s
same,body weights,[4]; Day 0,257.19 ± 9.90 g
same,body weights,[4]; Day 7,265.90 ± 13.94 g
same,body weights,[4]; [12],280.64 ± 12.32 g
same,body weights,[4]; [13],significantly increased
same,body weights,[4]; [14],291.00 ± 11.31 g
same,body weights,[4]; [15],significantly increased
same,comsumption of aqeous sucrose,[5]; Day 0,12.67 ± 5.53 mL
same,comsumption of aqeous sucrose,[5]; Day 7,10.00 ± 4.24 mL
same,comsumption of aqeous sucrose,[5]; [12],15.00 ± 2.22 mL
same,comsumption of aqeous sucrose,[5]; [13],significantly increased
same,comsumption of aqeous sucrose,[5]; [14],14.91 ± 2.68 mL
same,comsumption of aqeous sucrose,[5]; [15],significantly increased
same,Score of horizontal movement,[6]; listed as Positice control,28.09 ± 18.55
same,Score of vertical movement,[6]; listed as Positice control,7.00 ± 3.90
same,Score of horizontal movement,[6]; listed as Prozac,significantly increased
same,Score of vertical movement,[6]; listed as Prozac,significantly increased
same,Error times in training period,[7],2.09 ± 1.22
same,Error times in training period,[7]; listed as Prozac,significantly reduced
same,Error times in testing period,[7],0.72 ± 1.19
same,Error times in testing period,[7]; listed as Prozac,significantly reduced
same,Immobility Time,[8],significantly reduced
